Measurements from US20090298903A1, “USE OF TETRAMIC ACID DERIVATIVES FOR INSECT CONTROL” (priority 2006, published 2009).

Columns and labels:
Type in all cases: in vivo
[1] = tested on: apple capsid bug (Plesiocoris rugicollis); test: Example 1B: apple trees against apple capsid bug; settings: 37 d after treatment, larvae on twigs, Deltamethrin (EC 025) 3.75, (I-4) (150 OD) 30 g a.s./ha/m crown level
Description: Apple trees cv. “Holsteiner Cox” which are approximately 14 years old are treated, in 3 replications, against the apple capsid bug (Plesiocoris rugicollis). Here, the active substance Example (I-4) (150 OD) is tested at the specified application rate against the commercial standard Deltamethrin liquid (EC 025) at the specified application rate. The application is carried out with a knapsack sprayer. Here, the treatment is effected with a water application rate of 500 l/ha/m crown level.
The test is evaluated 37 days after the treatment by scoring the destruction of the larvae on the twigs with the aid of the Abbott method.

[2] = tested on: oriental fruit moth (Laspeyresia molesta); test: Example 28: peach trees against oriental fruit moth; settings: 41 d after treatment, Pyrifroxyfen (35 WP) 123, Acetamiprid (30 SG) 168, (I-4) (150 OD) 153 g a.s./ha
Description: Approx. 10-year-old peach trees are treated, in four replications, against the oriental fruit moth (Laspeyresia molesta). The application is carried out with a knapsack sprayer which is operated with pressurized air. Here, the active substance (I-4) (150 OD) is tested against the commercial standards Pyriproxyfen (35 WP) and Acetamiprid (30 SG) at the specified application rates. The water application rate is 935 l/ha.
The test is evaluated 41 days after the treatment by scoring the destruction rate of the animals on the trees.

Pegomya spp. = test: Example 17: winter wheat against Pegomya spp.; settings: 3 days after the last of two treatments (interval 7 days), larvae, Thiacloprid (240 OD) 72, (I-4) (240 SC + 0.2% rapeseed oil methyl ester) 96 g a.s./ha
Description: Plots approx. 25 m^2 in size which are planted with winter wheat cv. “Capfern” are treated, in four replications, against Pegomya spp. The application is carried out with a knapsack sprayer which is operated with pressurized air. Here, the active substance Example (I-4) (240 SC), in a tank mix with 0.2% a.s. rapeseed oil methyl ester (500 EW) and the commercial standard Thiacloprid (240 OD), is tested at the specified application rates. Two applications are carried out at an interval of 7 days. The water application rate is 350 l/ha.
The test is evaluated 3 days after the last treatment by scoring the destruction rate of the larvae on the plants.

Empoasca onukui = test: Example 15: tea plants against Empoasca onukui; settings: larvae on shoots
Description: Plots approx. 4 m^2 in size which are planted with tea plants cv. “Yabukita” are treated, in three replications, against Empoasca onukui. The application is carried out with a knapsack sprayer which is operated with pressurized air. Here, the active substance Example (I-4) (150 OD) is tested against the commercial standard Admire (10 WP) at the specified application rates. The water application rate is 10 000 l/ha.
The test is evaluated 15 and 29 days after the treatment by scoring the destruction rate of the larvae in percent on the shoots.

Ceutorhynchus napi = test: Example 26-A: oilseed rape against Ceutorhynchus napi; settings: 55 d after treatment, larvae, Deltamethrin (25 EC) 5, (I-4) (+ 0.2% rapeseed oil methyl ester) 72, Thiacloprid (OD 240) 72, Lambda-cyhalothrin 5 g a.s./ha
Description: Plots approx. 25 m^2 in size which are planted with oilseed rape cv. “Artus” are treated, in four replications, against Ceutorhynchus napi. The application is carried out with a motor-operated knapsack sprayer. Here, the active substance Example (I-4), in a tank mix with 0.2% a.s. rapeseed oil methyl ester (500 EW) and the commercial standards Deltamethrin (25 EC), lambda-cyhalothrin (S100) and Thiacloprid (OD 240), is tested at the specified application rates. The water application rate is 250 l/ha.
The test is evaluated 55 days after the treatment by scoring the destruction rate of the larvae on the plants.

Carpocapsa pomonella = test: Example 29: apple trees against Carpocapsa pomonella, fruit damage; settings: application rate printed as g a.s./ha: Chlorpyrifos-methyl (25 WP) 0.1, (I-4) (240 SC + 0.1% Steffes Mero) 0.012
Description: Approx. 15-year-old apple trees cv. “Golden Delicious” are treated, in four replications, against Carpocapsa pomonella. The application is carried out with an atomizer. Here, the active substance Example (I-4) (240 SC) in a tank mix together with 0.1% a.s. of the adjuvant Steffes Mero (rapeseed oil methyl ester) (733 1R) and the commercial standard Chlorpyrifos-methyl (25 WP) are tested at the specified application rates. The water application rate is 1052 l/ha. Two applications are carried out at an interval of 13 days.
The test is evaluated 32 days after treatment 2 by scoring the fruit damage with the aid of the Abbott formula.

[3] = tested on: Anthonomus pomorum, the apple blossom weevil; test: Example 26B: apple trees against apple blossom weevil; settings: 22 d after treatment, larvae on inflorescences, Thiacloprid (SC 480) 48 + Deltamethrin 3.75 tank mix, (I-4) (150 OD) 48 g a.s./ha/m crown level
Description: Apple trees cv. “Holsteiner Cox” in plots approx. 20 m^2 in size are treated, in 4 replications, against Anthonomus pomorum, the apple blossom weevil. Here, the active substance Example (I-4) (150 OD) at the specified application rate is tested against a tank mix of the commercial standards Thiacloprid (SC 480) and Deltamethrin-liquid in the specified application rates. The application is carried out with a knapsack sprayer. Here, the treatment is effected with a water application rate of 500 l/ha/m crown level.
The test is evaluated 22 days after the treatment by scoring the destruction of the larvae on the inflorescences with the aid of the Abbott method.

Ceratitis capitata = test: Example 20: peach trees against Ceratitis capitata; settings: animals on fruits
Description: Peach trees cv. “Oom Sarel” which are approximately 10 years old are treated, in three replications, against Ceratitis capitata. The application is carried out with a high-pressure sprayer or a knapsack sprayer which is operated with pressurized air. Here, the active substance Example (I-4) (150 OD) and the commercial standard Fenthion (500 EC) are tested at the specified application rates. The water application rate is 2500 l/ha. Three applications are carried out at an interval of 7 and 19 days, respectively.
The test is evaluated 9 and 16 days after treatment 3 by scoring the destruction rate of the animals on the fruits with the aid of the Abbott formula.

Structure (SMILES): CCOC(=O)OC1=C(c2cc(C)ccc2C)C(=O)N[C@]12CC[C@@H](OC)CC2 [Example (I-4)]
- Efficacy (%) Abbott 37 d [1]: 96%
- Efficacy (% Abbott) 41 d [2]: 48.1 % Abbott
- Efficacy (% Abbott) 10 d (Pegomya spp.): 100 % Abbott
- Efficacy (% Abbott) 15 d (Empoasca onukui; 15 d after treatment, Admire (10 WP) 0.005 % a.s., (I-4) (150 OD) 0.01 % a.s.): 73 % Abbott
- Efficacy (% Abbott) 29 d (Empoasca onukui; 29 d after treatment, Admire 0.005 % a.s., (I-4) 0.01 % a.s.): 78.8 % Abbott
- Efficacy (% Abbott) 55 d (Ceutorhynchus napi): 74.3 % Abbott
- Efficacy (% Abbott) 32 d after treatment 2 (Carpocapsa pomonella): 73.7 % Abbott
- Efficacy (%) Abbott 22 d [3]: 88%
- Efficacy (% Abbott) 16 d after treatment 3 (Ceratitis capitata; Fenthion 1700, (I-4) 100 g a.s./ha): 100 % Abbott
- Efficacy (% Abbott) 9 d after treatment 3 (Ceratitis capitata; Fenthion (500 EC) 1700, (I-4) (150 OD) 100 g a.s./ha): 86.7 % Abbott
